Where a name gives a salt, the structure may show the parent alone. Marks after values point to notes of the source that are not given here.
What was measured:
Type in all cases: physicochemical
[1] = Kinetic solubility in water and bio-relevant media (SGF, FaSSIF, FeSSIF) at RT; conditions: for solubility kinetic: water and bio-relevant media (SGF, FaSSIF, FeSSIF), water/bio-relevant media
Method: After being centrifuged and separated using 0.45 μm Nylon filter, filtrates were collected for HPLC and pH test, and wet cakes for XRPD characterization. If clear solutions were obtained after 24 hours, accurate concentration and purity were measured for the solutions.

[2] = Inter-conversion of crystal forms via storage and heating experiments
[3] = Solubility estimation in solvents at RT; conditions: organic solvent or mixture, thermodynamic from solid
Method: Solubility of Type A was estimated in nine solvents at RT. […] Approximately 2 mg solids were added into a 3-mL glass vial.

[4] = water and bio-relevant media (SGF, FaSSIF, FeSSIF) at RT

Row | SMILES | S: Solubility ([1]; FaSSIF, RT, 1 hr) | S: Solubility ([1]; FaSSIF, RT, 2 hrs) | S: Solubility ([1]; FaSSIF, RT, 4 hrs) | S: Solubility ([1]; FaSSIF, RT, 24 hrs) | S: Solubility ([1]; SGF, RT, 1 hr) | S: Solubility ([1]; SGF, RT, 2 hrs) | S: Solubility ([1]; SGF, RT, 4 hrs) | S: Solubility ([1]; SGF, RT, 24 hrs) | S: Solubility ([1]; Water, RT, 1 hr) | S: Solubility ([1]; Water, RT, 2 hrs) | S: Solubility ([1]; Water, RT, 4 hrs) | S: Solubility ([1]; Water, RT, 24 hrs) | solubility compared with freebase Type A [1, 4] | S: Solubility ([1]; FeSSIF, RT, 1 hr) | also measured
1 | CCOCc1nc2c(N)nc3ccccc3c2n1CC(C)(C)O [Adipate Type A, resiquimod] | 4.3 mg/mL | 4.5 mg/mL | 4.6 mg/mL | 4.5* mg/mL | 4.7 mg/mL | C (C: Clear) | C (C: Clear) | 4.7* mg/mL | 2.8 mg/mL | 2.7 mg/mL | 2.8 mg/mL | 2.7 mg/mL | improved or comparable solubility | – | FC: Solid form change ([1]; FaSSIF, RT, 1 hr): No; FC: Solid form change ([1]; Water, RT, 1 hr): No; FC: Solid form change ([1]; Water, RT, 2 hrs): No; FC: Solid form change ([1]; Water, RT, 4 hrs): No; FC: Solid form change ([1]; Water, RT, 24 hrs): No; Kinetic Solubility at RT ([1]; bio-relevant media): >4.2 (bio-relevant mg/mL; Kinetic Solubility at RT ([1]; water): ~2.7 (water) mg/mL
2 | CCOCc1nc2c(N)nc3ccccc3c2n1CC(C)(C)O [Di-HCl salt Type A, resiquimod] | C (C: Clear) | C (C: Clear) | C (C: Clear) | 3.9* mg/mL | C (C: Clear) | C (C: Clear) | C (C: Clear) | 3.9* mg/mL | – | – | – | – | improved or comparable solubility | C (C: Clear) | S: Solubility ([1]; FeSSIF, RT, 2 hrs): C (C: Clear); S: Solubility ([1]; FeSSIF, RT, 4 hrs): C (C: Clear); S: Solubility ([1]; FeSSIF, RT, 24 hrs): 3.9* mg/mL
3 | CCOCc1nc2c(N)nc3ccccc3c2n1CC(C)(C)O [Malate Type A, resiquimod] | C (C: Clear) | C (C: Clear) | C (C: Clear) | 3.7* mg/mL | C (C: Clear) | C (C: Clear) | C (C: Clear) | 4.3* mg/mL | C (C: Clear) | C (C: Clear) | C (C: Clear) | 3.7* mg/mL | improved or comparable solubility | – | solubility kinetic ([1]; water): > 3500 µg/mL
4 | CCOCc1nc2c(N)nc3ccccc3c2n1CC(C)(C)O [Maleate Type A, resiquimod] | 2.2 mg/mL | 2.3 mg/mL | 2.4 mg/mL | 2.3 mg/mL | 1.4 mg/mL | 1.5 mg/mL | 1.6 mg/mL | 1.5 mg/mL | 0.93 mg/mL | 0.98 mg/mL | 1.1 mg/mL | 0.97 mg/mL | – | – | FC: Solid form change ([1]; FaSSIF, RT, 1 hr): No; FC: Solid form change ([1]; FaSSIF, RT, 2 hrs): No; FC: Solid form change ([1]; FaSSIF, RT, 4 hrs): No; FC: Solid form change ([1]; FaSSIF, RT, 24 hrs): No; FC: Solid form change ([1]; FeSSIF, RT, 1 hr): No; FC: Solid form change ([1]; FeSSIF, RT, 2 hrs): No; FC: Solid form change ([1]; FeSSIF, RT, 4 hrs): No; FC: Solid form change ([1]; FeSSIF, RT, 24 hrs): No; solubility compared with freebase Type A ([1]; SGF, FaSSIF, and FeSSIF at RT): decreased solubility; FC: Solid form change ([1]; SGF, RT, 1 hr): No; FC: Solid form change ([1]; SGF, RT, 2 hrs): No; FC: Solid form change ([1]; SGF, RT, 4 hrs): No; FC: Solid form change ([1]; SGF, RT, 24 hrs): No; FC: Solid form change ([1]; Water, RT, 1 hr): No; FC: Solid form change ([1]; Water, RT, 2 hrs): No; FC: Solid form change ([1]; Water, RT, 4 hrs): No; FC: Solid form change ([1]; Water, RT, 24 hrs): No; Kinetic Solubility at RT ([1]; bio-relevant media): ~1.5 (bio-relevant mg/mL; form change after kinetic solubility evaluation ([1]; remaining solids after suspended 24 hours, XRPD): no form change; Kinetic Solubility at RT ([1]; water): ~1.0 (water) mg/mL
5 | CCOCc1nc2c(N)nc3ccccc3c2n1CC(C)(C)O [Mono-HCl salt Type A, resiquimod] | – | – | – | – | C (C: Clear) | C (C: Clear) | C (C: Clear) | 4.7* mg/mL | – | – | – | – | improved or comparable solubility | C (C: Clear) | solubility at 24 h ([1]; FaSSIF, thermodynamic from solid, FaSSIF, RT, 24 hrs, read-out: S: Solubility): 4500 µg/mL; S: Solubility ([1]; FeSSIF, RT, 2 hrs): C (C: Clear); S: Solubility ([1]; FeSSIF, RT, 4 hrs): C (C: Clear); S: Solubility ([1]; FeSSIF, RT, 24 hrs): 4.6* mg/mL; solubility kinetic ([1]; water, summary): > 3800 µg/mL
6 | CCOCc1nc2c(N)nc3ccccc3c2n1CC(C)(C)O [Phosphate Type A, resiquimod] | C (C: Clear) | C (C: Clear) | C (C: Clear) | 4.3* mg/mL | C (C: Clear) | C (C: Clear) | C (C: Clear) | 4.0* mg/mL | C (C: Clear) | C (C: Clear) | C (C: Clear) | 3.9* mg/mL | improved or comparable solubility | – | –
7 | CCOCc1nc2c(N)nc3ccccc3c2n1CC(C)(C)O [Sulfate Type A, resiquimod] | C (C: Clear) | C (C: Clear) | C (C: Clear) | 4.0* mg/mL | C (C: Clear) | C (C: Clear) | C (C: Clear) | 3.9* mg/mL | C (C: Clear) | C (C: Clear) | C (C: Clear) | 4.1* mg/mL | improved or comparable solubility | C (C: Clear) | –
8 | CCOCc1nc2c(N)nc3ccccc3c2n1CC(C)(C)O [Type C, resiquimod] | – | – | – | – | – | – | – | – | – | – | – | – | – | – | form conversion on drying ([2]; dried at ambient conditions overnight): converted to Type A
9 | CCOCc1nc2c(N)nc3ccccc3c2n1CC(C)(C)O [Type F, resiquimod] | – | – | – | – | – | – | – | – | – | – | – | – | – | – | form conversion on storage ([2]; storage at ambient conditions for 2 days): converted to Type A
10 | CCOCc1nc2c(N)nc3ccccc3c2n1CC(C)(C)O [sulfate Type A (807919-21-A)] | – | – | – | – | – | – | – | – | – | – | – | – | – | – | solubility ([3]; ACN): < 2200 µg/mL; solubility ([3]; DMAc): > 40000 µg/mL; solubility ([3]; DMSO): > 44000 µg/mL; solubility ([3]; EtOAc): < 2200 µg/mL; solubility ([3]; IPAc): < 2000 µg/mL; solubility ([3]; MEK): < 2000 µg/mL; solubility ([3]; MIBK): < 2100 µg/mL; solubility ([3]; MTBE): < 2300 µg/mL; solubility ([3]; NMP): > 44000 µg/mL; solubility ([3]; anisole): < 2200 µg/mL; solubility ([3]; n-heptane): < 2100 µg/mL; solubility ([3]; toluene): < 2000 µg/mL
